Two compounds from paper PMC6274180, “Investigating Glycol-Split-Heparin-Derived Inhibitors of Heparanase: A Study of Synthetic Trisaccharides” (Molecules, 2016) can be followed below.

This assay concerns the target T1, heparanase (Homo sapiens, UniProt Q9Y251).
T1 construct: gene HPSE
T1 sequence (Q9Y251 36-109): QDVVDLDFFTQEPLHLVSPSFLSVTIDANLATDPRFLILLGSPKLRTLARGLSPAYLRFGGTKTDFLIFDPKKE
T1 sequence (Q9Y251 158-543): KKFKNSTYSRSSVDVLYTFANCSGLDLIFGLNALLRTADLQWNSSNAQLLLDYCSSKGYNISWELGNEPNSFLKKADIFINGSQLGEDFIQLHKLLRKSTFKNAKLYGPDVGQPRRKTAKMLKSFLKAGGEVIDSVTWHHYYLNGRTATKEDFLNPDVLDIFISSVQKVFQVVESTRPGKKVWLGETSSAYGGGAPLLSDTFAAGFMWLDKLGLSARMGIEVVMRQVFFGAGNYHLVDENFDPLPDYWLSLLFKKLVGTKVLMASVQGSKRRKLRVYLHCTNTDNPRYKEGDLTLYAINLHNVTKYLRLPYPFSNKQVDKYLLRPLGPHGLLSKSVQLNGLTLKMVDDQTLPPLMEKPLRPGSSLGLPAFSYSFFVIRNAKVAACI
Briefly: in vitro colorimetric (WST-1) heparanase inhibition assay with fondaparinux as substrate. Type of assay: biochemical. For orientation: Tetrazolium dyes change colour on reduction, which living cells bring about.

As for `CO[C@H]1[C@H](O)[C@@H](NS(=O)(=O)O)[C@@H](O[C@H]2[C@H](O)[C@@H](O)[C@H](O[C@H]3[C@H](O)[C@@H](NS(=O)(=O)O)[C@@H]4OC[C@H]3O4)O[C@@H]2C(=O)O)O[C@@H]1COS(=O)(=O)O` [compound 1], inhibition was half-maximal at 39.9 µM (IC50).

For `CO[C@H]1[C@H](O)[C@@H](NS(=O)(=O)O)[C@@H](O[C@@H](CO)[C@H](O[C@H](CO)O[C@H]2[C@H](O)[C@@H](NS(=O)(=O)O)[C@@H]3OC[C@H]2O3)C(=O)O)O[C@@H]1COS(=O)(=O)O` [compound 2, sodium(2S,3S)-4-hydroxy-2-((R)-2-hydroxy-1-(((1R,2S,3R,4R,5R)-3-hydroxy-4-(sulfonatoamino)-6,8-dioxabicyclo[3.2.1]octan-2-yl)oxy)ethoxy)-3-(((2R,3R,4R,5S,6R)-4-hydroxy-5-methoxy-3-(sulfonatoamino)-6-((sulfonatooxy)methyl)tetrahydro-2H-pyran-2-yl)oxy)butanoate], the IC50 is 2.65 µM.

For orientation: IC50 means the point on the concentration scale where inhibition reaches its midpoint. Low readings indicate inhibition by little substance, high ones a need for much substance.
